Patent publication US20260034119A1, “5-METHOXY-N,N-[…][…], THEIR […], AND METHODS FOR TREATMENT OF NEUROLOGICAL, […], AND SUBSTANCE USE DISORDERS” (priority 2023, published 2026)
“And” between values parts separate entries of the source, which are not always exact repeats. Equal entries are not always repeated. Where two headings read alike, the source gives them in different places.

Experiments:
human 5-HT1A [1] = target: T1, human 5-HT1A (Homo sapiens, UniProt P08908); assay: 5-HT1A-mediated cAMP reduction assay (GloSensor, HEK293-T)
T1 sequence (P08908 1-422): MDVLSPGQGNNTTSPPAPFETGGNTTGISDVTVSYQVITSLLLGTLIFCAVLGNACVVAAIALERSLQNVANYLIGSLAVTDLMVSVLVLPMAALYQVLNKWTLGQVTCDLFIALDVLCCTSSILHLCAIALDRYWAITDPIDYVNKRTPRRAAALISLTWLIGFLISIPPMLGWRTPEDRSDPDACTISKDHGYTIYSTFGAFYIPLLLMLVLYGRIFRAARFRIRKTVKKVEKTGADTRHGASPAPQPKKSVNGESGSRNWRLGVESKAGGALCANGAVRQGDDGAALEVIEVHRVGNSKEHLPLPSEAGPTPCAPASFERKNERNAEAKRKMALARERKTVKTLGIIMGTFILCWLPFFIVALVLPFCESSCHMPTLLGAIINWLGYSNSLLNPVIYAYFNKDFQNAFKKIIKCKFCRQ

human 5-HT1A [2] = target: T1, human 5-HT1A; assay: cell-based
5-HT1A = 5-HT1A (Homo sapiens, UniProt P08908); assay: BRET signaling assay: 5-HT1A-mediated activation of heterotrimeric Gi1 (TRUPATH, HEK293-T)
5-HT2A = 5-HT2A (Homo sapiens, UniProt P28223); assay: cell-based
[3] = Activity (5-HT1A cAMP) EC50 (nM), Table 5
[4] = EC50 (nM) 5-HT1A cAMP, Table 6, commercial ligands
[5] = EC50 (nM) Mean Gio(cAMP)-1A, Table 2

5-HT2A, sequence (P28223 whole entry): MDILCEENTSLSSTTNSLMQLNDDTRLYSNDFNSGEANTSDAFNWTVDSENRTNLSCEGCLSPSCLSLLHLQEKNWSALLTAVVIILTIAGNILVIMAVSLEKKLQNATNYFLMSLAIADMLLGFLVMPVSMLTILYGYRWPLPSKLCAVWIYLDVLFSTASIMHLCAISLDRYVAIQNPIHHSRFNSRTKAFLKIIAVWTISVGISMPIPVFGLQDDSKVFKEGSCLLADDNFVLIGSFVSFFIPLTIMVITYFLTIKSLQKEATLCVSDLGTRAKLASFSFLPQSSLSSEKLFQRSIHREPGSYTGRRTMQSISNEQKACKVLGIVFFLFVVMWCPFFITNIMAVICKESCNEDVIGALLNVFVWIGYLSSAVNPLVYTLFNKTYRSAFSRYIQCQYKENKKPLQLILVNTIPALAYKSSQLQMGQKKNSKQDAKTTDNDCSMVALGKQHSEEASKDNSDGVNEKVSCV

Row | Structure (SMILES) | EC50 (human 5-HT1A [2]) | further results
1 | COc1ccc2occ(CCN3CCCC3)c2c1 [Compound 77, 1-(2-(5-methoxybenzofuran-3-yl)ethyl)pyrrolidine] | – | EC50 (human 5-HT1A [1]; [3]): 7.19 nM
2 | Oc1ccc2[nH]cc(CCN3CCCC3)c2c1F [Compound 42, 4-fluoro-3-(2-(pyrrolidin-1-yl)ethyl)-1H-indol-5-ol] | 0.04 nM and 0.0417 nM | –
3 | COc1ccc2occ(CCN(C)C)c2c1 [Compound 76, 2-(5-methoxybenzofuran-3-yl)-N,N-dimethylethan-1-amine] | – | EC50 (human 5-HT1A [1]; [3]): 178 nM
4 | c1ccc(COc2ccc3[nH]cc(CCN4CCCC4)c3c2)cc1 [Compound 48, 5-(benzyloxy)-3-(2-(pyrrolidin-1-yl)ethyl)-1H-indole] | 33 nM | –
5 | CCN(C)CCc1c[nH]c2ccc(SC)cc12 [Compound 68, N-ethyl-N-methyl-2-(5-(methylthio)-1H-indol-3-yl)ethan-1-amine] | 3.35 nM and 3.31 nM | –
6 | COc1ccc2[nH]cc(CCN3CC=CCC3)c2c1 [Compound 23, 3-(2-(3,6-dihydropyridin-1(2H)-yl)ethyl)-5-methoxy-1H-indole] | 8.77 nM | –
7 | COc1cccc2[nH]cc(CCN3CCCC3)c12 [Compound 55, 4-methoxy-3-(2-(pyrrolidin-1-yl)ethyl)-1H-indole] | 164 nM | –
8 | O=C1[C@@H]2[C@H]3CC[C@H](C3)[C@@H]2C(=O)N1CCCCN1CCN(c2ncccn2)CC1 [Tandospirone, reference compound] | – | EC50 (human 5-HT1A [1]; [4]): 1.51 nM; Efficacy as %5HT 5-HT1A cAMP (human 5-HT1A [1]; Table 6, commercial ligands): 96.3 %5HT
9 | COc1ccc2[nH]cc(CCN3C[C@H]4C=C[C@@H]3CC4)c2c1 [Compound 24] | 628 nM | –
10 | CC(C)N(CCc1c[nH]c2ccccc12)C(C)C [Compound 4] | 1330 nM | –
11 | Oc1ccc2[nH]cc(CCN3C[C@H]4C=C[C@@H]3CC4)c2c1 [Compound 51, 3-(2-((1S,4R)-2-azabicyclo[2.2.2]oct-5-eN-2-yl)ethyl)-1H-indol-5-ol] | 149 nM | –
12 | O=C1CCc2ccc(OCCCCN3CCN(c4cccc(Cl)c4Cl)CC3)cc2N1 [Aripiprazole, aripiprazole, reference compound] | – | Emax (5-HT1A; HEK-293T, read-out: Emax, 5-HT1A-mediated activation of Gi1 (BRET)): 77.1%; Efficacy as %5HT 5-HT1A BRET Gi1 (5-HT1A; Table 6, commercial ligands): 77.1 %5HT
13 | COc1ccc2c(c1)c(CCn1cccc1)cn2C [Compound 45, 3-(2-(1H-pyrrol-1-yl)ethyl)-5-methoxy-1-methyl-1H-indole] | 6580 nM | –
14 | COc1ccc2c(c1)c(CCN1CCCC1)cn2C [Compound 43, 5-methoxy-1-methyl-3-(2-(pyrrolidin-1-yl)ethyl)-1H-indole] | 89.1 nM | –
15 | CN(C)CCc1c[nH]c2ccccc12 [Compound 1] | – | EC50 (5-HT2A): 94.4 nM and 93.3 nM
16 | COc1ccc2[nH]cc(CCN3C[C@H]4C=C[C@@H]3CC4)c2c1F [Compound 38, (1S,4R)-2-(2-(4-fluoro-5-methoxy-1H-indol-3-yl)ethyl)-2-azabicyclo[2.2.2]oct-5-ene] | 173 nM | –
17 | c1[nH]c2cc3c(cc2c1CCN1CCCC1)OCO3 [Compound 64, 7-(2-(pyrrolidin-1-yl)ethyl)-5H-[1,3]dioxolo[4,5-f]indole] | 3.5 nM | –
18 | CN(C)CCc1c[nH]c2ncccc12 [Compound 72, N,N-dimethyl-2-(1H-pyrrolo[2,3-b]pyridin-3-yl)ethan-1-amine] | – | EC50 (human 5-HT1A [1]; [3]): 1910 nM
19 | c1cnc2[nH]cc(CCN3CCCC3)c2c1 [Compound 74, 3-(2-(pyrrolidin-1-yl)ethyl)-1H-pyrrolo[2,3-b]pyridine] | – | EC50 (human 5-HT1A [1]; [3]): 3240 nM
20 | c1ccc2c(N3CCNCC3)cccc2c1 [N-(1-naphthyl)piperazine, N-(1-Napthyl)piperazine, reference compound] | – | EC50 (human 5-HT1A [1]; [4]): 50.3 nM; Efficacy as %5HT 5-HT1A cAMP (human 5-HT1A [1]; Table 6, commercial ligands): 137.0 %5HT
21 | COc1ccc2c(CCN3CC=CC3)c[nH]c2c1 [Compound 62, 3-(2-(2,5-dihydro-1H-pyrrol-1-yl)ethyl)-6-methoxy-1H-indole] | 30.9 nM | –
22 | COc1ccc2[nH]cc(CCN3CCCCC3)c2c1 [Compound 5-MeO-PipT, 5-methoxypiperidinyl-tryptamine] | – | EC50 (5-HT1A; read-out: Gi BRET EC50): 88.5 nM; loss of potency at 5-HT1A (5-HT1A; relative to 5-MeO-PyrT): ~42 fold
23 | COc1ccc2c(CCN3CCCC3)c[nH]c2c1 [Compound 61, 6-methoxy-3-(2-(pyrrolidin-1-yl)ethyl)-1H-indole] | 492 nM | –
24 | COc1ccc2c(CCN(C)C)c[nH]c2c1 [Compound 60, 2-(6-methoxy-1H-indol-3-yl)-N,N-dimethylethan-1-amine] | 3240 nM | –
25 | CCN(C)CCc1c[nH]c2ccccc12 [Compound 2] | 302 nM | –
26 | c1cnc2[nH]cc(CCN3CCCCC3)c2c1 [Compound 75, 3-(2-(piperidin-1-yl)ethyl)-1H-pyrrolo[2,3-b]pyridine] | – | EC50 (human 5-HT1A [1]; [3]): 18500 nM
27 | CCN(C)CCc1c[nH]c2cccc(O)c12 [Compound 53, 4-OH-MET] | 769 nM | –
28 | CN(C)CCc1c[nH]c2cc3c(cc12)OCO3 [Compound 63, 2-(5H-[1,3]dioxolo[4,5-f]indol-7-yl)-N,N-dimethylethan-1-amine] | 64.4 nM and 64.6 nM | –

Row | Structure (SMILES) | EC50 (human 5-HT1A [2]) | further results
29 | CN(C)CCc1c[nH]c2ccc(O)cc12 [Bufotenine (5-OH-DMT), Bufotenine, reference compound] | – | EC50 (5-HT1A; EC50 (nM), Gi1 BRET, 5-HT1A WT): 9.29 nM
30 | COc1cccc2[nH]cc(CCN(C)C)c12 [Compound 54, 2-(4-methoxy-1H-indol-3-yl)-N,N-dimethylethan-1-amine] | 558 nM | –
31 | COc1ccc2occ(CCN3CCCCC3)c2c1 [Compound 78, 1-(2-(5-methoxybenzofuran-3-yl)ethyl)piperidine] | – | EC50 (human 5-HT1A [1]; [3]): 416 nM
32 | C=CCN(CC=C)CCc1c[nH]c2ccc(OC)cc12 [Compound 17] | 4.66 nM | –
33 | COc1ccc2[nH]cc(CCN3CCCC3C)c2c1 (centres unmarked) [Compound 19] | 2.4 nM | –
34 | CC(C)N(C)CCc1c[nH]c2ccccc12 [Compound 3] | 1980 nM | –
35 | COc1ccc2occ(CCN3CC=CCC3)c2c1 [Compound 79, 1-(2-(5-methoxybenzofuran-3-yl)ethyl)-1,2,3,6-tetrahydropyridine] | – | EC50 (human 5-HT1A [1]; [3]): 7130 nM
36 | C1=CC2CCC1CN2CCc1c[nH]c2cc3c(cc12)OCO3 (centres unmarked) [Compound 65] | 9890 nM | –
37 | CC1(C)CC(=O)N(CCCCN2CCN(c3ncccn3)CC2)C(=O)C1 [Gepiron, Gepirone, reference compound] | – | Efficacy as %5HT 5-HT1A cAMP (human 5-HT1A [1]; Table 6, commercial ligands): 95.4 %5HT
38 | Oc1ccc2[nH]cc(CCN3CCCC3)c2c1F [Compound 18] | – | EC50 (human 5-HT1A [1]; [5]): 0.04 nM; EC50 (human 5-HT1A [1]; pEC50 Gio(cAMP)-1A, Table 2): 0.0417 nM
39 | C1=CC2CCC1CN2CCc1c[nH]c2ccccc12 (centres unmarked) [Compound 7] | 15500 nM | –
40 | COc1ccc2[nH]cc(CCn3ccnc3)c2c1 [Compound 22, 3-(2-(1H-imidazol-1-yl)ethyl)-5-methoxy-1H-indole] | 292 nM | –
41 | COc1ccc2[nH]cc(CCN3C[C@H]4C=C[C@@H]3CC4)c2c1F [Compound 14] | – | EC50 (human 5-HT1A [1]; [5]): 173 nM
42 | CCN(CC)CCc1c[nH]c2ncccc12 [Compound 73, N,N-diethyl-2-(1H-pyrrolo[2,3-b]pyridin-3-yl)ethan-1-amine] | – | EC50 (human 5-HT1A [1]; [3]): 7800 nM
43 | c1ccc2c(CCN3CCCC3)c[nH]c2c1 [Compound 5] | 19.1 nM | –
44 | Fc1cccc2[nH]cc(CCN3CCCC3)c12 [Compound 58, 4-fluoro-3-(2-(pyrrolidin-1-yl)ethyl)-1H-indole] | 16.7 nM | –
45 | Cc1cccc2c(CCN(C)C)c[nH]c12 [Compound 70, N,N-dimethyl-2-(7-methyl-1H-indol-3-yl)ethan-1-amine] | 1210 nM | –
46 | CC[C@H]1C[C@@H]2C=C[C@H]1N(CCc1c[nH]c3ccc(OC)c(F)c13)C2 [Compound 39, (1S,4R,7S)-7-ethyl-2-(2-(4-fluoro-5-methoxy-1H-indol-3-yl)ethyl)-2-aza bicyclo[2.2.2]oct-5-ene] | 47.3 nM and 46.8 nM | –
47 | COc1ccc2c(c(CCN3CC=CC3)cn2C)c1F [Compound 47, 3-(2-(2,5-dihydro-1H-pyrrol-1-yl)ethyl)-4-fluoro-5-methoxy-1-methyl-1H-indole] | 2.74 nM | –
48 | CN(C)CCc1c[nH]c2cccc(F)c12 [Compound 57, 2-(4-fluoro-1H-indol-3-yl)-N,N-dimethylethan-1-amine] | 87.7 nM | –
49 | COc1ccc2c(c1)c(CCN1CC=CC1)cn2C [Compound 44, 3-(2-(2,5-dihydro-1H-pyrrol-1-yl)ethyl)-5-methoxy-1-methyl-1H-indole] | 209 nM | –
50 | CCN(CC)CCc1c[nH]c2ccc(OC)cc12 [Compound 11, 5-MeO-DET] | – | EC50 (5-HT1A; Gi BRET EC50): 37.1 nM
51 | c1ccc2c(CCN3CCCCC3)c[nH]c2c1 [Compound 6] | 485 nM | –
52 | Oc1ccc2[nH]cc(CCN3CCCC3)c2c1 [Compound 50, 3-(2-(pyrrolidine-1-yl)ethyl)-1H-indol-5-ol] | 0.1 nM and 0.0977 nM | –
53 | COc1ccc2[nH]cc(CCN3CC=CC3)c2c1F [Compound 37, 3-(2-(2,5-dihydro-1H-pyrrol-1-yl)ethyl)-4-fluoro-5-methoxy-1H-indole] | 0.00229 nM | EC50 (5-HT1A; Gi BRET EC50): 0.22 nM; EC50 (5-HT2A): 120 nM
54 | COc1ccc2c(c(CCN3CCCC3)cn2C)c1F [Compound 46, 4-fluoro-5-methoxy-1-methyl-3-(2-(pyrrolidin-1-yl)ethyl)-1H-indole] | 100 nM | –
55 | CCC1C[C@@H]2C=C[C@H]1N(CCc1c[nH]c3cc4c(cc13)OCO4)C2 (stereo partly drawn) [Compound 66, 7-(2-((1S,4R)-7-ethyl-2-azabicyclo[2.2.2]oct-5-en-2-yl)ethyl)-5H-[1,3]dioxolo[4,5-f]indole] | 1690 nM | –
